Data as given in patent publication US20090158455A1, “COMPOSITIONS AND METHODS FOR MODULATING LYSINE PRODUCTION” (priority 2005, published 2009).

How the values were obtained:
[1] = tested on: maize LL-DAP transaminase; assay: Inhibitors of LL-DAP transaminase, ortho aminobenzaldehyde assay; assay type: biochemical, maize (Zea mays); conditions: substrate LL-DAP 0.5 mM
Experimental: (§1) For enzyme assays of crude proteins, extracts were prepared by grinding tissue in liquid nitrogen with 100 mM HEPESKOH (pH 7.6), followed by centrifugation at 10,000 g for 15 min, and then buffer exchange using an Amicon Ultra 30,000 MWCO filter. […] Reactions were incubated at 30° C. and the ΔA (440 nm) measured continuously. […] The reaction was incubated at 30° C., and the decrease in A340 was measured. […] The reaction was run to completion, determined by monitoring the increase in A340. […] The kinetic constants were calculated by nonlinear regression analysis using GraphPad Prizm version 4.03.
(§2) Assays for assessing the ability of certain compounds to inhibit LL-DAP aminotransferase have been performed and the results are shown below in Table V. The reactions were performed as described above.

[2] = molecular target: A. thaliana LL-DAP transaminase (Arabidopsis thaliana, UniProt Q93ZN9); assay: Inhibitors of LL-DAP transaminase, m-DAP dehydrogenase coupled assay; assay type: biochemical; conditions: inhibitor 40 mM, substrate LL-DAP 0.05 mM
A. thaliana LL-DAP transaminase, sequence (Q93ZN9 40-461): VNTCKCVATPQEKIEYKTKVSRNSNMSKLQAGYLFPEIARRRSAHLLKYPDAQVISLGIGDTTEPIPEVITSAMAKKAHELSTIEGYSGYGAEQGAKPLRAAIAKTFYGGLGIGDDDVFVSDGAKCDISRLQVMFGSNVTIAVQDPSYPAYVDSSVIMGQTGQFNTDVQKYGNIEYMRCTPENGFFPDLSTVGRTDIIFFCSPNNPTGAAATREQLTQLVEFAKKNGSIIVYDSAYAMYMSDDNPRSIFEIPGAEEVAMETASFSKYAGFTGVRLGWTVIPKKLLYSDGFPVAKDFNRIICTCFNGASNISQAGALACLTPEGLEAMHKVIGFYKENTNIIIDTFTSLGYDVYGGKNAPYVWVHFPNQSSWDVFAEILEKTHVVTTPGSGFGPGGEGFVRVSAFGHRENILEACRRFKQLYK
Experimental: as §1, §2

[3] = molecular target: T1, CT390 (Chlamydia trachomatis serovar D, UniProt O84395); assay: Quantitative reverse assay of pure CT390; assay type: biochemical; conditions: for Km: reverse assay, apparent Km; for Use as amino donor by CT390: reverse direction
T1 construct: His-Tag (N); made in house; host or cells: E. coli
T1 sequence (O84395 whole entry): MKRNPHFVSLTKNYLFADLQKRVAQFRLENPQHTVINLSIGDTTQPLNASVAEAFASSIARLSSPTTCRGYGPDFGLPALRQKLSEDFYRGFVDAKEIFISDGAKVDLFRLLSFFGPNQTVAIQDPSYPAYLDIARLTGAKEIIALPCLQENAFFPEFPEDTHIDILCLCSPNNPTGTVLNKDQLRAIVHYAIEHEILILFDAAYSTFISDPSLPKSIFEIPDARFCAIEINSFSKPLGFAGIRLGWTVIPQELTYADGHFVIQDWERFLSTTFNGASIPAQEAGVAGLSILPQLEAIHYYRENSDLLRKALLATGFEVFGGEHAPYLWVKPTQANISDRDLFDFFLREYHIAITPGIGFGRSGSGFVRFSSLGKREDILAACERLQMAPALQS

[4] = molecular target: Methanothermobacter thermautotrophicus LL-DAP transaminase MTH52 (Methanothermobacter thermautotrophicus, UniProt O26158); assay: Quantitative forward and reverse assays of purified LL-DAP transaminases (Example III); conditions: reverse assay
Methanothermobacter thermautotrophicus LL-DAP transaminase MTH52, sequence (O26158 whole entry): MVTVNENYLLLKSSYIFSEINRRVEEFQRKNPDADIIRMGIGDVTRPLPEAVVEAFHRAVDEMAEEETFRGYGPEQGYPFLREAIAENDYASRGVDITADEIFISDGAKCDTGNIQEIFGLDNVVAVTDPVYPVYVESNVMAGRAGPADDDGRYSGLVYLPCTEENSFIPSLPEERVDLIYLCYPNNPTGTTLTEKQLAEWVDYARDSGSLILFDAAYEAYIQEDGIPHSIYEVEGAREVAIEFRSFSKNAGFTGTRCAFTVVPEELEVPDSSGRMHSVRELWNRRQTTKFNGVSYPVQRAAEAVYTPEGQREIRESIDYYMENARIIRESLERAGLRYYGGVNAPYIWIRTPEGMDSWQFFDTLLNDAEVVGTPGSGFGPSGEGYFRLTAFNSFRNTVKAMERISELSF
Experimental: This plasmid was transformed into E. coli BL21-CodonPlus®-RIPL for expression and purification of the recombinant protein.
For protein expression the E. coli strains were grown on LB at 37° C. to an OD600 nm of 0.5 and protein expression was then induced with 1 mM IPTG for 4 hr at 25° C. Cells were lysed by sonication in a solution of 50 mM sodium phosphate and 300 mM NaCl (pH 8.0). Metabolites in the extract were removed by buffer exchange using an Amicon Ultra 30,000 MWCO ultrafilter and sodium phosphate/NaCl buffer, and the concentrated soluble protein sample was used for measurement of enzyme activity as an initial assessment of enzyme function. When the recombinant protein was to be purified a larger cell culture was grown and lysed as described above, but the buffer exchange step was not carried out. […] The pure protein was then concentrated in an Amicon Ultra 30,000 MWCO ultrafilter, replacing the elution buffer with 100 mM HepesKOH, pH 7.6.

[5] = molecular target: T1, CT390; assay: Quantitative forward assay of pure CT390; assay type: biochemical; conditions: apparent Km
Experimental: All enzyme assays were carried out essentially as described in Example I. Incubation temperature was 30° C. Kinetic constants were determined by varying substrate concentrations while keeping the co-substrate level constant at the concentration described below. Kinetic data were analyzed by non-linear regression analysis using GraphPad Prizm Version 4.03.
Quantitative assay of the physiologically forward reaction was carried out sequentially in a pre-reaction to generate THDP from m-DAP followed by an LL-DAP aminotransferase assay. […] The pre-reaction was run to completion, monitored by the increase in absorbance at 340 nm resulting from NADPH formation. The aminotransferase reaction was monitored at 398 nm to measure the formation of thioNADH. […] Subsequently, the aminotransferase assay was initiated by addition of CT390, bringing the total reaction volume to 1 mL.

[6] = molecular target: Arabidopsis thaliana LL-DAP-AT (At4g33680), wild type, recombinant (lacks first 39 amino acids, hexa-His and S-TAG), SEQ ID NO: 7 (Arabidopsis thaliana, UniProt Q93ZN9); assay: Quantitative coupled reverse and forward assays of pure recombinant LL-DAP-AT (Table III); assay type: biochemical
Arabidopsis thaliana LL-DAP-AT (At4g33680), wild type, recombinant (lacks first 39 amino acids, hexa-His and S-TAG), SEQ ID NO: 7, sequence (Q93ZN9 40-461): as the sequence (Q93ZN9 40-461) above
Experimental: as §1
For this reason quantitative coupled assays were developed to assess the enzyme activity in both the reverse and forward directions. […] The reaction sequence is shown in Scheme 1.
The overall reaction series is shown in Scheme 2.
Thio-NADH has an absorbance maximum at 398 nm, which can be discerned from NADPH, which has an absorbance maximum at 340 nm. FIG. 4 illustrates such a reaction. […] Two plots are shown using 0.55 and 0.055 mM m-DAP.

[7] = molecular target: T2, Arabidopsis LL-DAP-AT (Arabidopsis thaliana, UniProt Q93ZN9); assay: OAB assay of LL-DAP-AT activity in Arabidopsis leaf extract; assay type: biochemical; conditions: added at 1,000-fold excess over LL-DAP; data not shown
T2 construct: The protein extract was prepared from Arabidopsis leaves by grinding in liquid nitrogen; from tissue; host or cells: Arabidopsis leaves / axenically grown plants, crude soluble extract
T2 sequence (Q93ZN9 46-461): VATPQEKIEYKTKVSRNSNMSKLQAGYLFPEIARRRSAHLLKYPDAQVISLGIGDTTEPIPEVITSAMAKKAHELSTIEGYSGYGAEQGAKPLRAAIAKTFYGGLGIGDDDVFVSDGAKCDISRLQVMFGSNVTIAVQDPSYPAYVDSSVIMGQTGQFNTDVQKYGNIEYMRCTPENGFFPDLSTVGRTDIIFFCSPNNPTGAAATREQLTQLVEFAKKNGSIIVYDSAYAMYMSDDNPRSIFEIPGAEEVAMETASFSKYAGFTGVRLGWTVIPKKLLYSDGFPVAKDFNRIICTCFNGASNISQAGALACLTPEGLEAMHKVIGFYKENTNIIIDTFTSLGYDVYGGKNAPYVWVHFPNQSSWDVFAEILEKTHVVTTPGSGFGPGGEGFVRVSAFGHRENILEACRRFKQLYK
Experimental: FIGS. 2A and 2B. LL-DAP-AT activity in Arabidopsis. […] The reaction was incubated at 30° C. The protein extract was prepared from Arabidopsis leaves by grinding in liquid nitrogen with 100 mM HEPESKOH (pH 7.6), centrifugation at 10,000 g for 15 min, and buffer exchange using an Amicon Ultra 30,000 MWCO filter.
as §1
The rate of the reaction was directly proportional to the amount of protein extract added (FIG. 2B). […] If the extract was heated in a boiling water bath for 5 min, the activity was completely destroyed. […] Moreover, since the source material was axenically grown, the activity must have been derived from the Arabidopsis rather than a contaminating microorganism.

[8] = molecular target: AGD2 protein (At4g33680) (Arabidopsis thaliana, UniProt Q93ZN9); conditions: transamination of Lys, Song et al. (2004); cited from earlier work
AGD2 protein (At4g33680), sequence (Q93ZN9 46-461): as above

[9] = tested on: LL-DAP transaminase; assay: Quantitative forward assay of purified microbial LL-DAP transaminases; assay type: biochemical
Experimental: (§3) Enzyme assays were performed as described above in Examples I and II.
(§4) The catalytic properties of sll0480, BF2643, Dhaf—3980, MTH52, and SfumDRAFT0821 were studied in greater detail using purified enzymes to determine their kinetic constants using quantitative forward and reverse assays.

[10] = tested on: LL-DAP transaminase; assay: Quantitative reverse assay of purified microbial LL-DAP transaminases; assay type: biochemical; conditions: reverse
Experimental: as §3, §4

[11] = molecular target: T3, LL-DAP transaminase (Synechocystis sp., UniProt Q55828); assay: as above; assay type: biochemical; conditions: keto acids (5 mM) substituted for 2-oxoglutarate in reverse and for THDPA in forward reaction
T3 construct: His-Tag; made in house; host or cells: E. coli BL21-CodonPlus-RIPL
T3 sequence (Q55828 whole entry): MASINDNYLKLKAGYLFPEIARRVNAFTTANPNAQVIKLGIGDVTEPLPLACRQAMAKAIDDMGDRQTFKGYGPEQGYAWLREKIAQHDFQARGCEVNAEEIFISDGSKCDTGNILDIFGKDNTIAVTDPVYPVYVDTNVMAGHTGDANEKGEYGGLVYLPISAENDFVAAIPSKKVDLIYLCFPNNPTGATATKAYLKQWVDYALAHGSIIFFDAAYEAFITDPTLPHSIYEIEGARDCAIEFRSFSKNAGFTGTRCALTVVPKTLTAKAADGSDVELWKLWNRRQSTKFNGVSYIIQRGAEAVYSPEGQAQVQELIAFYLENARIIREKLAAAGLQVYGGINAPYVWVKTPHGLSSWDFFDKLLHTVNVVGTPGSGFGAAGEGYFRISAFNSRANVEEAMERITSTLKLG
Experimental: as §3, §4

NC(CCCCC(=O)O)C(=O)O (racemic) [L, D-α-aminopimelate]
Inhibition % ([1]; inhibitor 5 mM): 50+ %
Inhibition % ([1]; inhibitor 10 mM): 83+ %

NC(CCC(O)C(N)C(=O)O)C(=O)O (racemic) [Threo-β-hydroxy DAP (racemic), Threo-β-hydroxy DAP]
inhibition at 40000 µM [2]: 68%

O=C(O)CCC(=O)C(=O)O [2-OG, 2-oxoglutarate, reference compound]
Km [3]: 650 µM

O=C(O)CCC(=O)C(=O)O [2-OG, 2-oxoglutarate]
Km [4]: 800 µM

N[C@@H](CCC(=O)O)C(=O)O [Glu, glutamate, reference compound]
Km [5]: 1000 µM

N[C@@H](CCC[C@H](N)C(=O)O)C(=O)O [LL-DAP, LL-2,6-diaminopimelate]
Km [3]: 20 µM
Km for LL-DAP lower than the value for Lys ([6]; compared with Km of 58.8 mM for Lys of Song et al. (2004)): 830 fold
Kcat ([6]; reverse assay, pH 7.5, 30° C.): 17.6 s⁻¹

NCCCC[C@H](N)C(=O)O [Lys, lysine]
Inhibition of the use of LL-DAP (LL-DAP-AT activity) [7]: did not inhibit
Use as amino donor by CT390 [3]: unable to use
Km [8]: 58800 µM

O=C(O)C1=N[C@H](C(=O)O)CCC1 [THDPA, L-2,3,4,5-tetrahydrodipicolinate]
Km [5]: 200 µM
Kcat ([6]; forward assay, pH 7.5): 0.3 s⁻¹

N[C@@H](CCSC[C@H](N)C(=O)O)C(=O)O [cystathionine]
Use as amino donor by CT390 [3]: unable to use

NC(CCCC(N)C(=O)O)C(=O)O (centres unmarked) [m-DAP, m-2,6-diaminopimelate]
Inhibition of the use of LL-DAP (LL-DAP-AT activity) [7]: did not inhibit
Use as amino donor by CT390 [3]: able to use

Mth52: LL-DAP transaminase from M. thermoautotrophicum
Vmax F [9]: 0.6 µmol/min/mg
Km ([10]; read-out: Km 2-OG, substrate 2-OG): 800 µM
Vmax R [10]: 4.7 µmol/min/mg

sII0480: LL-DAP transaminase from Synechocystis sp.
Vmax F [9]: 0.25 µmol/min/mg
Keto acid specificity [11]: active only with 2-oxoglutarate or THDPA
Vmax R [10]: 3.3 µmol/min/mg
